# Assay results: PubChem BioAssay AID1963965 (Molecular Pharmacology Branch, DTP, NCI, 2024)
# Tested on: 996289-038-R-J1-PDC spheroid viability
# Assay: Anticancer human tumor 996289-038-R-J1-PDC patient-derived colon adenocarcinoma cell line growth inhibition [PI3K]
# Settings: spheroids with HUVEC and MSC; for IC50: curve of first compound; for viability, T/C: stronger effect = lower value
# In short: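 Targeted small molecules plus PI3K inhibitors, half-log dose series from Cmax (default top 10 microM), were applied to heterotypic spheroids of cancer cells with HUVEC and MSCs. Viability indicated growth inhibition.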
# 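Also: spheroids exposed to compounds for seven days before viability read.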
# 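For viability, T/C in this document: luminescence used as a proxy for viable cell amount; percent viability relative to DMSO vehicle control as 100%.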
structure (smiles),measurement,setting,value
C#Cc1c(F)ccc2cc(O)cc(-c3ncc4c(N5CC6CCC(C5)N6)nc(OCC56CCCN5CC(F)C6)nc4c3F)c12 (configuration not stated) + CC(Nc1ncnc2nc[nH]c12)c1cc2cccc(Cl)c2c(=O)n1-c1ccccc1,IC50,second compound 0.0316 µM,1160 nM
same,IC50,second compound 0.1 µM,1510 nM
same,IC50,second compound 0.316 µM,1430 nM
same,IC50,second compound 1 µM,1040 nM
same,IC50,second compound 3.16 µM,681 nM
same,IC50,second compound 10 µM,372 nM
same,"viability, T/C","second compound 0.0316 µM, first compound 0.0316 µM",101%
same,"viability, T/C","second compound 0.0316 µM, first compound 0.1 µM",96.6%
same,"viability, T/C","second compound 0.0316 µM, first compound 0.316 µM",69.7%
same,"viability, T/C","second compound 0.0316 µM, first compound 1 µM",52%
same,"viability, T/C","second compound 0.0316 µM, first compound 3.16 µM",45.6%
same,"viability, T/C","second compound 0.0316 µM, first compound 10 µM",37.2%
same,"viability, T/C","second compound 0.1 µM, first compound 0.0316 µM",90.4%
same,"viability, T/C","second compound 0.1 µM, first compound 0.1 µM",76.2%
same,"viability, T/C","second compound 0.1 µM, first compound 0.316 µM",60.6%
same,"viability, T/C","second compound 0.1 µM, first compound 1 µM",55.3%
same,"viability, T/C","second compound 0.1 µM, first compound 3.16 µM",46.8%
same,"viability, T/C","second compound 0.1 µM, first compound 10 µM",33%
same,"viability, T/C","second compound 0.316 µM, first compound 0.0316 µM",95.9%
same,"viability, T/C","second compound 0.316 µM, first compound 0.1 µM",81.8%
same,"viability, T/C","second compound 0.316 µM, first compound 0.316 µM",71.2%
same,"viability, T/C","second compound 0.316 µM, first compound 1 µM",54%
same,"viability, T/C","second compound 0.316 µM, first compound 3.16 µM",40%
same,"viability, T/C","second compound 0.316 µM, first compound 10 µM",33.7%
same,"viability, T/C","second compound 1 µM, first compound 0.0316 µM",99.3%
same,"viability, T/C","second compound 1 µM, first compound 0.1 µM",79%
same,"viability, T/C","second compound 1 µM, first compound 0.316 µM",59.8%
same,"viability, T/C","second compound 1 µM, first compound 1 µM",57.5%
same,"viability, T/C","second compound 1 µM, first compound 3.16 µM",35.6%
same,"viability, T/C","second compound 1 µM, first compound 10 µM",32.8%
same,"viability, T/C","second compound 3.16 µM, first compound 0.0316 µM",92.3%
same,"viability, T/C","second compound 3.16 µM, first compound 0.1 µM",81.6%
same,"viability, T/C","second compound 3.16 µM, first compound 0.316 µM",63.2%
same,"viability, T/C","second compound 3.16 µM, first compound 1 µM",42.6%
same,"viability, T/C","second compound 3.16 µM, first compound 3.16 µM",34.1%
same,"viability, T/C","second compound 3.16 µM, first compound 10 µM",27.6%
same,"viability, T/C","second compound 10 µM, first compound 0.0316 µM",78.9%
same,"viability, T/C","second compound 10 µM, first compound 0.1 µM",74%
same,"viability, T/C","second compound 10 µM, first compound 0.316 µM",47.8%
same,"viability, T/C","second compound 10 µM, first compound 1 µM",37.9%
same,"viability, T/C","second compound 10 µM, first compound 3.16 µM",29.5%
same,"viability, T/C","second compound 10 µM, first compound 10 µM",20.9%
